Consider 30 molecules from US8389557B2, “Triazole derivatives useful as Axl inhibitors” (Rigel Pharmaceuticals, Inc., priority 2005, dated 2013).

Where only a bound is given, the exact number is not on record here.

A word on the IC50: it is the concentration at which inhibition is half-maximal. High values mean weaker potency, low ones greater potency.

The target in this assay is T1, Axl (Homo sapiens, UniProt P30530).
T1 construct: endogenous in cells; host or cells: HeLa cells
T1 sequence (P30530 26-894): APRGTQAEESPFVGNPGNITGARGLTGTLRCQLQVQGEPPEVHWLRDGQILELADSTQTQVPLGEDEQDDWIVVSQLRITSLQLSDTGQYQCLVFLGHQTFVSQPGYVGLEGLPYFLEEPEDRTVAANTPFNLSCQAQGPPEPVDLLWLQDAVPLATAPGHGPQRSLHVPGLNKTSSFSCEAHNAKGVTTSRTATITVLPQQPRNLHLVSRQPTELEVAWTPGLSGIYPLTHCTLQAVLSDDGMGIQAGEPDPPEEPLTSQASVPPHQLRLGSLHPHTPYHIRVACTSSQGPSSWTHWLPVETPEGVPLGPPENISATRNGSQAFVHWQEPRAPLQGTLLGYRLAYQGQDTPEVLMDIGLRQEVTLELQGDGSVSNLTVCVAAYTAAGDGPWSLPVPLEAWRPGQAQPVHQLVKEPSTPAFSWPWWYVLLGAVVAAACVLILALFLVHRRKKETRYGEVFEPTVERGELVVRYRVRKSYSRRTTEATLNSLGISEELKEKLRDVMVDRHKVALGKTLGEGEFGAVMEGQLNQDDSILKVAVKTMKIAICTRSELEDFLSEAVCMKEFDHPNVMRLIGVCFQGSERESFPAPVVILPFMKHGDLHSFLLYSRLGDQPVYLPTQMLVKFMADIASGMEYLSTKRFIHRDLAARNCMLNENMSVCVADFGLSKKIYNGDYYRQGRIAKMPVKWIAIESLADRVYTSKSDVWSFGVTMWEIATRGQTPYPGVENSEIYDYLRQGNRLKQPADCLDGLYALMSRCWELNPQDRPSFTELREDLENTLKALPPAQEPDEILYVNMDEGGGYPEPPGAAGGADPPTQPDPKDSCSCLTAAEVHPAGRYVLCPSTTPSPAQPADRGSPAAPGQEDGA
Nature of the assay: Phospho-Akt in-cell Western assay (inhibition of Axl activity). Type of assay: cell-based. Put shortly: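 HeLa cells on poly-L-lysine, starved 24 h in 0.5% FCS DMEM with Axl/Fc 500 ng/mL, pre-treated with compound 1 h at 37° C. Axl stimulated 5 min by anti-Axl/anti-mouse antibody cross-linking. Fixed cells probed with anti-phospho-Akt and HRP secondary, chemiluminescence read.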

[1] abbreviates: inhibition of Axl activity, Table 1.
The mark [2] stands for this setting: Table 5, Hela cells, Axl antibody cross-linking stimulation, phospho-Akt chemiluminescence.
The mark [3] stands for this setting: inhibition of Axl activity, phospho-Akt in-cell Western assay, Table 1.
The mark [4] stands for this setting: Table 7, Hela cells, Axl antibody cross-linking stimulation, phospho-Akt chemiluminescence.

Under setting [1], `CC(C)Oc1ccc(C(=O)n2nc(Nc3ccc(OCC(F)(F)F)cc3)nc2N)cc1` [compound 152, 5-amino-1-(4-(iso-propoxy)phenyl)carbonyl-3-[4-(2,2,2-trifluoroethoxy)phenylamino]-1H-1,2,4-triazole] had an IC50 of more than 20 µM.

As for `CN(C)c1cccc(C(=O)n2nc(NC3C4C=CC(C4)C3C(N)=O)nc2N)c1` (stereo not drawn) [compound 352, 5-amino-1-(3-(dimethylamino)phenyl)carbonyl-3-[(5-(aminocarbonyl)bicyclo[2.2.1]hept-2-en-6-yl)amino]-1H-1,2,4-triazole], the IC50 under setting [2] is more than 20 µM.

Take `CC(C)(C)Oc1ccc(C(=O)n2nc(NC3CCN(S(C)(=O)=O)CC3)nc2N)cc1` [compound 393, 5-amino-1-(4-(tert-butoxy)phenyl)carbonyl-3-(1-methylsulfonylpiperidin-4-yl)amino-1H-1,2,4-triazole]: under setting [2], the IC50 was more than 20 µM.

`Nc1nc(Nc2ccccc2)nn1C(=O)c1ccc(-c2csnn2)cc1` [compound 334, 5-amino-1-(4-(1,2,3-thiadiazol-4-yl)phenyl)carbonyl-3-(phenylamino)-1H-1,2,4-triazole]: the IC50 under setting [3] is more than 20 µM.

Take `Cc1ccc(C(=O)n2nc(Nc3ccc(N4CCCC4)cc3)nc2N)cc1` [compound 300, 5-amino-1-(4-(methyl)phenyl)carbonyl-3-[4-(pyrrolidin-1-yl)phenylamino]-1H-1,2,4-triazole]: under setting [3], the IC50 lay in the range of 1 to 10 µM.

As to `CC(C)Oc1cccc(C(=O)n2nc(Nc3cccc(-c4cnco4)c3)nc2N)c1` [compound 170, 5-amino-1-(3-(iso-propoxy)phenyl)carbonyl-3-[3-(1,3-oxazol-5-yl)phenylamino]-1H-1,2,4-triazole], the concentration for half-maximal inhibition (IC50) under setting [1] fell in the range of 1 to 10 µM.

The molecule `CC(C)Oc1ccc(Nc2nc(N)n(C(=O)c3ccc(OC(C)C)cc3)n2)cc1` [compound 111, 5-amino-3-[4-(iso-propoxy)phenylamino]-1-(4-(iso-propoxy)phenyl)carbonyl-1H-1,2,4-triazole] yielded an IC50 under setting [1] of 1 to 10 µM.

Regarding `Nc1nc(Nc2ccc(OCCN3CCCC3)cc2)nn1C(=O)c1cccc(-c2nccs2)c1` [compound 310, 5-amino-1-(3-(thiazol-2-yl)phenyl)carbonyl-3-[4-[2-(pyrrolidin-1-yl)ethoxy]phenylamino]-1H-1,2,4-triazole], under setting [3], the IC50 was less than 1 µM.

Under setting [2], `Cc1cccc(C(=O)n2nc(Nc3nc4ccccc4s3)nc2N)c1` [compound 256, 5-amino-3-(benzothiazol-2-yl)amino-1-(3-methylphenyl)carbonyl-1H-1,2,4-triazole] yielded an IC50 of more than 20 µM.

In turn, `Nc1nc(Nc2ccc(OCCN3CCCCC3)cc2)nn1C(=O)NC1CCCC1` [compound 45, 5-amino-N-cyclopentyl-3-[4-[2-(piperidin-1-yl)ethoxy]phenylamino]-1H-1,2,4-triazole-1-carboxamide] came in with a 50% inhibitory concentration (IC50) under setting [4] of 1 to 10 µM.

For the setting “Table 2, Hela cells, Axl antibody cross-linking stimulation, phospho-Akt chemiluminescence”, `Nc1nc(Nc2ccc(OCCN3CCCC3)c(F)c2)n(C(=O)c2ccc(N3CCOCC3)cc2)n1` [compound 304, 3-amino-1-(4-(morpholin-4-yl)phenyl)carbonyl-5-[3-fluoro-4-[2-(pyrrolidin-1-yl)ethoxy]phenylamino]-1H-1,2,4-triazole] showed an IC50 of 10 to 20 µM.

Take `Nc1nc(Nc2ccc3c(c2)OCCO3)nn1C(=O)c1ccc(OCc2ccccc2)cc1` [compound 142, 5-amino-1-(4-(benzyloxy)phenyl)carbonyl-3-(1,4-benzodioxan-6-yl)amino-1H-1,2,4-triazole]: under setting [1], the half-maximal inhibitory concentration (IC50) fell in the range of 1 to 10 µM.

In turn, `CC(C)Oc1ccc(Nc2nc(N)n(C(=O)c3cccc([N+](=O)[O-])c3)n2)cc1` [compound 71, 5-amino-3-[4-(iso-propoxy)phenylamino]-1-(3-(nitro)phenyl)carbonyl-1H-1,2,4-triazole] displayed an IC50 under setting [1] of 1 to 10 µM.

Turning to `Nc1nc(Nc2ccc3c(c2)OCCO3)nn1C(=O)c1cccc(Cl)c1` [compound 101, 5-amino-1-(3-(chloro)phenyl)carbonyl-3-(1,4-benzodioxan-6-yl)amino-1H-1,2,4-triazole], the IC50 under setting [1] fell in the range of 1 to 10 µM.

Under setting [2], `Cc1cccc(C(=O)n2nc(Nc3ccc4oc(CO)cc4c3)nc2N)c1` [compound 136, 5-amino-3-(2-(hydroxymethyl)benzofuran-5-yl)amino-1-(3-(methyl)phenyl)carbonyl-1H-1,2,4-triazole] displayed an IC50 of 1 to 10 µM.

In turn, `Cc1ccc(C(=O)n2nc(Nc3ccc(OCCN4CCCC4)cc3)nc2N)s1` [compound 284, 5-amino-1-(5-methylthien-2-yl)carbonyl-3-[4-[2-(pyrrolidin-1-yl)ethoxy]phenylamino]-1H-1,2,4-triazole] displayed an IC50 (Table 3, Hela cells, Axl antibody cross-linking stimulation, phospho-Akt chemiluminescence) of less than 1 µM.

`CC(C)Oc1ccc(C(=O)n2nc(Nc3ccc(OCCN4CCOCC4)cc3)nc2N)cc1` [compound 159] gave an IC50 under setting [1] of less than 1 µM.

`CCOc1ccc(Nc2nc(N)n(C(=O)c3ccc(OC(C)C)cc3)n2)cc1` [compound 118, 5-amino-3-[4-(ethoxy)phenylamino]-1-(4-(iso-propoxy)phenyl)carbonyl-1H-1,2,4-triazole]: the IC50 under setting [1] was in the range of 1 to 10 µM.

Consider `CC(C)(C)OC(=O)Nc1ccc(C(=O)n2nc(Nc3ccc(OCCN4CCCC4)cc3)nc2N)cc1` [compound 270, 5-amino-1-(4-(tert-butoxycarbonylamino)phenyl)carbonyl-3-[4-[2-(pyrrolidin-1-yl)ethoxy]phenylamino]-1H-1,2,4-triazole], for which, under setting [3], the IC50 was less than 1 µM.

Regarding `CNC(=O)COc1cccc(Nc2nc(N)n(C(=O)c3cccc(C)c3)n2)c1` [compound 146, 5-amino-3-[3-(methylaminocarbonylmethoxy)phenylamino]-1-(3-(methyl)phenyl)carbonyl-1H-1,2,4-triazole], the IC50 under setting [1] was in the range of 1 to 10 µM.

As for `CS(=O)(=O)c1ccc(C(=O)n2nc(Nc3ccc4c(c3)OCCO4)nc2N)cc1` [compound 248, 5-amino-3-(1,4-benzodioxan-6-yl)amino-1-[(4-methylsulfonyl)phenyl]carbonyl-1H-1,2,4-triazole], the IC50 under setting [1] was more than 20 µM.

Molecule `CNc1ccc(C(=O)n2nc(Nc3ccc(OCCN4CCCC4)cc3)nc2N)cc1` [compound 286, 5-amino-1-(4-(methylamino)phenyl)carbonyl-3-[4-[2-(pyrrolidin-1-yl)ethoxy]phenylamino]-1H-1,2,4-triazole] showed an IC50 under setting [3] of less than 1 µM.

With `Cc1cccc(C(=O)n2nc(Nc3ccc4c(cnn4C)c3)nc2N)c1` [compound 227, 5-amino-3-[1-methyl-1H-indazol-5-yl]amino-1-(3-methylphenyl)carbonyl-1H-1,2,4-triazole], the IC50 under setting [2] lay within 1 to 10 µM.

Turning to `CN1CCN(c2ccc(Nc3nc(N)n(C(=O)c4ccc(OC(C)(C)C)cc4)n3)cc2)CC1` [compound 357, 5-amino-1-(4-(tert-butoxy)phenyl)carbonyl-3-[4-(4-methylpiperazin-1-yl)phenylamino]-1H-1,2,4-triazole], the half-inhibitory concentration (IC50) under setting [3] was less than 1 µM.

Molecule `CN(C)c1cccc(C(=O)n2nc(N)nc2NC2C3C=CC(C3)C2C(N)=O)c1` (stereo not drawn) [compound 351, 3-amino-1-(3-(dimethylamino)phenyl)carbonyl-5-[(3-(aminocarbonyl)bicyclo[2.2.1]hept-5-en-2-yl)amino]-1H-1,2,4-triazole] returned an IC50 (Table 6, Hela cells, Axl antibody cross-linking stimulation, phospho-Akt chemiluminescence) of more than 20 µM.

Regarding `Nc1nc(Nc2ccc(Cl)cc2)nn1C(=O)c1ccc(Cl)cc1` [compound 217, 5-amino-3-(4-chlorophenyl)amino-1-(4-chlorophenyl)carbonyl-1H-1,2,4-triazole], the IC50 under setting [1] was more than 20 µM.

The molecule `Nc1nc(Nc2ccc(OCCN3CCCC3)cc2)nn1C(=O)c1cccc(-c2cccs2)c1` [compound 313, 5-amino-1-(3-(thien-2-yl)phenyl)carbonyl-3-[4-[2-(pyrrolidin-1-yl)ethoxy]phenylamino]-1H-1,2,4-triazole] returned an IC50 under setting [3] of less than 1 µM.

In turn, `Nc1nc(Nc2ccc3c(c2)OCCO3)nn1C(=O)c1cccc(F)c1` [compound 105, 5-amino-3-(1,4-benzodioxan-6-yl)amino-1-(3-(fluoro)phenyl)carbonyl-1H-1,2,4-triazole] came in with an IC50 under setting [1] of more than 20 µM.

Consider `Cc1cccc(C(=O)n2nc(Nc3ccc4c(c3)N(C(=O)OC(C)(C)C)CCO4)nc2N)c1` [compound 206, 5-amino-3-[(2H,3H-4-tert-butoxycarbonylbenzo[1,4]oxazin-6-yl)amino]-1-(3-methylphenyl)carbonyl-1,2,4-triazole], for which the IC50 under setting [2] was more than 20 µM.

In turn, `COc1cccc(NC(=O)n2nc(Nc3ccc(OCCN4CCCC4)cc3)nc2N)c1` [compound 32, 5-amino-N-(3-methoxyphenyl)-3-[4-[2-(pyrrolidin-1-yl)ethoxy]phenylamino]-1H-1,2,4-triazole-1-carboxamide] had an IC50 under setting [4] of less than 1 µM.
